Values quoted from earlier work in US20250287953A1 (CHEMICEUTICAL INC., priority 2021, published 2025).

## zinc pyrithione
  acute oral toxicity to rodents LD50 (50% lethal dose): 269 mg/kg
